This note sets out measurements from ChEMBL document CHEMBL1255493, “In vitro activity of telavancin against a contemporary worldwide collection of Staphylococcus aureus isolates” (2010).

Values after ≈ are worked out from the molar mass of the structure shown. Active and inactive are the calls of the source. The calls are words filed in the database; no cut-off is given here.

Holding throughout (type): functional
For assay [1], the system named is Staphylococcus aureus. The assay can be described thus: Antibacterial activity against methicillin-resistant Staphylococcus aureus clinical isolates by CLSi method.
In assay [2] the test system is Staphylococcus aureus. Briefly: Antibacterial activity against methicillin-resistant Staphylococcus aureus clinical isolates assessed as susceptible isolates by CLSI method.
Assay [3] relates to Staphylococcus aureus. Briefly: Antibacterial activity against methicillin-resistant Staphylococcus aureus clinical isolates assessed as resistant isolates by CLSI method.
Assay [4] deals with Staphylococcus aureus. Briefly: Antibacterial activity against methicillin-resistant Staphylococcus aureus clinical isolates assessed as susceptible isolates by EUCAST method.
Assay [5] has as its system Staphylococcus aureus. Briefly: Antibacterial activity against methicillin-resistant Staphylococcus aureus clinical isolates assessed as resistant isolates by EUCAST method.
Assay [6] has as its system Staphylococcus aureus. The assay can be described thus: Antibacterial activity against methicillin-susceptible Staphylococcus aureus clinical isolates by CLSi method.
The subject of assay [7] is Staphylococcus aureus. The assay can be described thus: Antibacterial activity against methicillin-susceptible Staphylococcus aureus clinical isolates assessed as susceptible isolates by CLSI method.
For assay [8], the system named is Staphylococcus aureus. The assay can be described thus: Antibacterial activity against methicillin-susceptible Staphylococcus aureus clinical isolates assessed as resistant isolates by CLSI method.
For assay [9], the system named is Staphylococcus aureus. The assay can be described thus: Antibacterial activity against methicillin-susceptible Staphylococcus aureus clinical isolates assessed as susceptible isolates by EUCAST method.
For assay [10], the system named is Staphylococcus aureus. Briefly: Antibacterial activity against methicillin-susceptible Staphylococcus aureus clinical isolates assessed as resistant isolates by EUCAST method.
Assay [11] relates to Staphylococcus aureus. Briefly: Antibacterial activity against methicillin-resistant Staphylococcus aureus clinical isolates assessed as susceptibility breakpoint.

`CCCCCCCCCC(=O)N[C@@H](Cc1c[nH]c2ccccc12)C(=O)N[C@H](CC(N)=O)C(=O)N[C@@H](CC(=O)O)C(=O)N[C@@H]1C(=O)NCC(=O)N[C@@H](CCCN)C(=O)N[C@@H](CC(=O)O)C(=O)N[C@H](C)C(=O)N[C@@H](CC(=O)O)C(=O)NCC(=O)N[C@H](CO)C(=O)N[C@@H]([C@H](C)CC(=O)O)C(=O)N[C@@H](CC(=O)c2ccccc2N)C(=O)O[C@@H]1C`: the MIC50 in assay [1] and in [6] was 0.25 µg/mL (≈ 0.154 µM) in each case. The MIC90 in [1] and in assay [6] was 0.5 µg/mL (≈ 0.309 µM) throughout. For the same compound, the Activity in assay [2] came to 99.9%; in assay [4] it was 99.9%; in assay [5], 0.1%; in assay [7], 100%; in assay [9], 100%; in assay [10], 0%. Also, the outcome in [3] and in [8] was inactive.
As for `CCC[C@@H]1C[C@@H](C(=O)N[C@@H]([C@H]2O[C@H](SC)[C@H](O)[C@@H](O)[C@H]2O)[C@H](C)Cl)N(C)C1` [CLINDAMYCIN], the MIC90 was greater than 2 µg/mL in assay [1] and no more than 0.25 µg/mL in assay [6]. The Activity in assay [2] was found to be 54.7%; in [3] it was 45%; in assay [4], 54.3%; in [5] it was 45.3%; in assay [7], 95%; in assay [8] it was 4.9%. The Activity in assay [9] is listed as 94.6%; in assay [10] it was 5%. Further, the MIC50 in [6] was no more than 0.25 µg/mL.
As to `CC[C@H]1OC(=O)[C@H](C)[C@@H](O[C@H]2C[C@@](C)(OC)[C@@H](O)[C@H](C)O2)[C@H](C)[C@@H](O[C@@H]2O[C@H](C)C[C@H](N(C)C)[C@H]2O)[C@](C)(O)C[C@@H](C)C(=O)[C@H](C)[C@@H](O)[C@]1(C)O` [ERYTHROMYCIN], the MIC50 in assay [1] is greater than 4 µg/mL; in [6], no more than 0.25 µg/mL. For the same compound, the Activity in [2] is reported as 13.9%; in [3], 85.6%; in [4], 14.2%; in assay [5], 85.6%; in assay [7], 74.3%; in [8], 25.2%. For the same compound, the values for the Activity in assay [9] and in assay [10] were 74.5% and 25.2%, respectively. The MIC90 in assay [6] was greater than 4 µg/mL.
On to `C[C@H]1COc2c(N3CCN(C)CC3)c(F)cc3c(=O)c(C(=O)O)cn1c23.C[C@H]1COc2c(N3CCN(C)CC3)c(F)cc3c(=O)c(C(=O)O)cn1c23.O` [LEVOFLOXACIN], for which the MIC50 in [1] was greater than 4 µg/mL; in assay [6], no more than 0.5 µg/mL. For the same compound, the MIC90 in assay [1] was greater than 4 µg/mL; in assay [6] it was no more than 0.5 µg/mL. The Activity in [2] was 21.6%; in assay [3], 77.9%; in assay [4], 21.6%; in assay [5], 77.9%; in [7], 92.9%; in [8], 6.8%. Moreover, the Activity in assay [9] came out at 92.9%; in assay [10] it was 6.8%.
Consider `CC(=O)NC[C@H]1CN(c2ccc(N3CCOCC3)c(F)c2)C(=O)O1` [LINEZOLID], for which the MIC50 in assay [1] came to 1 µg/mL (≈ 2.96 µM); in assay [6] it was 2 µg/mL (≈ 5.93 µM). For the same compound, the MIC90 in assay [1] and in assay [6] was 2 µg/mL (≈ 5.93 µM) in each case. Further, the outcome in assay [3] and in [8] was inactive. In addition, the Activity in assay [5] was less than 0.1%; in [7], 100%; in assay [9], 100%; in assay [10], 0%.
Consider `CCCCCCCCCCNCCN[C@@]1(C)C[C@H](O[C@H]2[C@H](Oc3c4cc5cc3Oc3ccc(cc3Cl)[C@@H](O)[C@@H](NC(=O)[C@@H](CC(C)C)NC)C(=O)N[C@@H](CC(N)=O)C(=O)N[C@H]5C(=O)N[C@H]3C(=O)N[C@H](C(=O)N[C@H](C(=O)O)c5cc(O)c(CNCP(=O)(O)O)c(O)c5-c5cc3ccc5O)[C@H](O)c3ccc(c(Cl)c3)O4)O[C@H](CO)[C@@H](O)[C@@H]2O)O[C@@H](C)[C@H]1O` [TELAVANCIN], for which the MIC50 in assay [1] and in assay [6] was 0.12 µg/mL (≈ 0.0684 µM) in each case. The MIC90 in assay [1] and in assay [6] was 0.25 µg/mL (≈ 0.142 µM) throughout. In addition, the outcome in [3], in assay [5], in [8] and in assay [10] was inactive. For the same compound, the Activity entry in assay [11] is on record as “<=1 ug ml-1”; in [7], 100%; in assay [9], 100%.
Regarding `CN(C)[C@@H]1C(O)=C(C(N)=O)C(=O)[C@@]2(O)C(O)=C3C(=O)c4c(O)cccc4[C@@](C)(O)[C@H]3C[C@@H]12` [TETRACYCLINE], the Activity is recorded as 80.7% in assay [2]; 19.1% in assay [3]; 80.1% in [4]; 19.9% in assay [5]; 94.6% in assay [7]; 5% in assay [8]. Moreover, the Activity was determined as 94.2% in assay [9] and 5.8% in assay [10]. In addition, the MIC50 in assay [6] was no more than 1 µg/mL. Moreover, the MIC90 in assay [6] was no more than 1 µg/mL.
`CN[C@H](CC(C)C)C(=O)N[C@H]1C(=O)N[C@@H](CC(N)=O)C(=O)N[C@H]2C(=O)N[C@H]3C(=O)N[C@H](C(=O)N[C@H](C(=O)O)c4cc(O)cc(O)c4-c4cc3ccc4O)[C@H](O)c3ccc(c(Cl)c3)Oc3cc2cc(c3O[C@@H]2O[C@H](CO)[C@@H](O)[C@H](O)[C@H]2O[C@H]2C[C@](C)(N)[C@H](O)[C@H](C)O2)Oc2ccc(cc2Cl)[C@H]1O` [VANCOMYCIN]: the MIC50 in assay [1] and in [6] was 1 µg/mL (≈ 0.69 µM) each time. Besides, the MIC90 in [1] and in [6] was 1 µg/mL (≈ 0.69 µM) in each case. The Activity in [2] is 99.9%; in assay [3] it was 0%; in assay [4] it was 99.9%; in assay [5], 0.1%; in [7], 100%; in [8], 0%. The results for the Activity in assay [9] and in assay [10] were 100% and 0%, respectively.
Turning to GENTAMICIN, the MIC50 in assay [1] and in assay [6] was less than 1 µg/mL each time. In addition, the MIC90 in assay [1] was greater than 8 µg/mL; in [6] it was less than 1 µg/mL. Moreover, the Activity in [2] amounted to 77.9%; in assay [3], 21.1%; in assay [4], 77.1%; in assay [5], 22.9%; in assay [7], 96.6%; in assay [8], 3.1%. For the same compound, the Activity in assay [9] amounted to 96.4%; in assay [10] it was 3.6%.
